Source: patent US7915316B2, “Sulfonamides” (Allergan, Inc, priority 2005, dated 2011)

How the values were obtained:
[1] = molecular target: T1, EP4 (Homo sapiens, UniProt P35408); assay: EP4 receptor binding (bhEP4 / EP4 Binding); settings: for IC50: Table 1; for EC50 / EP4 Binding % Inh: Table 2; for EP4 Binding % Inh: test concentration or dose not given here
[2] = molecular target: T2, EP2 (Homo sapiens, UniProt P43116); assay: cAMP assay; type: cell-based
[3] = molecular target: T2, EP2; assay: functional activity at hEP2 (fhEP2); type: cell-based; settings: Table 1
[4] = molecular target: T2, EP2; assay: EP2 receptor binding (bhEP2 / EP2 Binding); settings: for IC50: Table 1; for EC50 / EP2 Binding % Inh: Table 2; for EP2 Binding % Inh: test concentration or dose not given here
[5] = molecular target: T3, TP (Homo sapiens, UniProt P21731); assay: activity at TP receptor; settings: Table 2
T3 sequence (P21731 1-343): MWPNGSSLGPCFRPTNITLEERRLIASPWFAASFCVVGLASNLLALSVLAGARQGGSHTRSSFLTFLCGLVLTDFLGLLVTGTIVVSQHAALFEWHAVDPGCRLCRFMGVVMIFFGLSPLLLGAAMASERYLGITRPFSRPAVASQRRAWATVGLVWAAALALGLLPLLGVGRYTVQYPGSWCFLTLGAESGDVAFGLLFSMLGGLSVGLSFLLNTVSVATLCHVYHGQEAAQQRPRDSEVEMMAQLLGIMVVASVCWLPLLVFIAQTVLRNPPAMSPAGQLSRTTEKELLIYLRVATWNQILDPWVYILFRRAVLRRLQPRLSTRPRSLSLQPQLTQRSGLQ

[6] = molecular target: IP (Homo sapiens, UniProt P43119); assay: activity at IP receptor; settings: Table 2
IP, sequence (P43119 whole entry): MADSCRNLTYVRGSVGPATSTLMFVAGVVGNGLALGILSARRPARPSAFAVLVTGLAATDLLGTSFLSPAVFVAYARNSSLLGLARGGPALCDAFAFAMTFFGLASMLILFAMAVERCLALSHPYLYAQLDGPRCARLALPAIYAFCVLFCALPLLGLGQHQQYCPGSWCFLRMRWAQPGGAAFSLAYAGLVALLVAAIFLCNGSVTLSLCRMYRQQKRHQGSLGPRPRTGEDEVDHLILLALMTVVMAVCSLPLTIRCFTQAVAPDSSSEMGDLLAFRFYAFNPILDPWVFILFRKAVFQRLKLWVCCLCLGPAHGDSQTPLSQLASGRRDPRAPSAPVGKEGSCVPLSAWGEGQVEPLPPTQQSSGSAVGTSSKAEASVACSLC

[7] = molecular target: T1, EP4; assay: Ca2+ signal, EP4; type: cell-based; settings: relative to PGE2
[8] = molecular target: T2, EP2; assay: Ca2+ signal, EP2; type: cell-based; settings: for Emax: relative to PGE2
[9] = test system: EP2 and EP4 receptors; assay: in-vitro assay for binding to and activity at various prostaglandin receptors; settings: as compared to the FP, EP1, TP, IP and DP receptors

T2 sequence (P43116 whole entry): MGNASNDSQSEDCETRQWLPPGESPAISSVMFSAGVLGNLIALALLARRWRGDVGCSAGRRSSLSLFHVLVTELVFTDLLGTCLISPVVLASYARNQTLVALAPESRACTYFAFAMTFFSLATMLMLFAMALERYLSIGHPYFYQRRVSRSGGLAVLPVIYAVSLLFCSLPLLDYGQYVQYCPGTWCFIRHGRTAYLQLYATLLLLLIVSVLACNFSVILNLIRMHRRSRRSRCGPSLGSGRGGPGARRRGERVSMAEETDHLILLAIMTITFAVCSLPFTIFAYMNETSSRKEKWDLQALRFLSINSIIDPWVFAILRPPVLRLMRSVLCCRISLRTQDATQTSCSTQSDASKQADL
T1 sequence (P35408 whole entry): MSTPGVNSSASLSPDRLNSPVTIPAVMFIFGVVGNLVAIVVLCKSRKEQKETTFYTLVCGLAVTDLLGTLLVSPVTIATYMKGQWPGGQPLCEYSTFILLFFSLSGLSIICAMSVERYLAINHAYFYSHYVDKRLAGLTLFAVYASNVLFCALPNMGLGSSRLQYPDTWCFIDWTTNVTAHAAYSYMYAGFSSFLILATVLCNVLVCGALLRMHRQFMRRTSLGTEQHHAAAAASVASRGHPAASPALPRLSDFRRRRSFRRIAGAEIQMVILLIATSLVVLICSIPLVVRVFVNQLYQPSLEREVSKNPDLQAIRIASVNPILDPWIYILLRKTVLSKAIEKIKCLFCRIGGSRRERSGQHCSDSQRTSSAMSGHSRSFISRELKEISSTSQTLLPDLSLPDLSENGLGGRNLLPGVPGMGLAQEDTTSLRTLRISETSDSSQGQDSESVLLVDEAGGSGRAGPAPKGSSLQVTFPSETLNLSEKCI

SMILES | IC50 [1] [nM] | EC50 ([2]; Table 1, read-out: cAMP) [nM] | EC50 [3] [nM] | IC50 [4] [nM] | TP [5] | EC50 [1] [nM] | EP4 Binding % Inh [1] [%] | EC50 ([2]; Table 2, read-out: cAMP EC50) [nM] | EC50 [4] [nM] | EP2 Binding % Inh [4] [%] | IP [6] | Emax [7] [%] | EC50 [8] [nM] | Emax [8] [%] | selectivity at EP2 and EP4 receptors [9]
CCCCCC(O)c1ccc(CN(CCCCCCC(=O)O)S(=O)(=O)c2cccnc2)cc1 (centres unmarked) | 546 | 138 | 275 | 4730 |  |  |  |  |  |  |  |  |  |  | 
CS(=O)(=O)N(C/C=C\CCCC(=O)O)CCOc1cc(Cl)cc(Cl)c1 |  |  |  |  | 7008 | 2920 | 64 | 214 | 1900 | 81 | 403 | 10 | 2960 | 83 | 
CS(=O)(=O)N(CC#CCCCC(=O)O)CCOc1cc(Cl)cc(Cl)c1 |  |  |  |  |  | 4170 | 55 | 84 | 1130 | 87 | IP = 868 | 5 | 1250 | 90 | 
CCCCCC(O)c1ccc(CN(Cc2ccc(OCC(=O)O)cc2)S(=O)(=O)c2cccnc2)cc1 (centres unmarked) |  |  |  |  |  | 1320 | 89 | 3.5 | 208 | 97 |  | 2 | 11 | 92 | 
CC(C)(C)c1ccc(CN(Cc2ccc(OCC(=O)O)cc2)S(=O)(=O)c2cccnc2)cc1 [4-[[4-(1-t-butyl)benzyl]pyridinesulfonylaminomethyl]phenoxyacetic acid] |  |  |  |  |  | 1340 | 59 | 18 | 100 | 93 |  | 0 | 20 | 87 | 
CCCCCC(O)c1ccc(CN(CCCCCCC(=O)O)S(=O)(=O)c2ccccc2)cc1 (centres unmarked) [7-[[4-(1-hydroxyhexyl)benzyl]benzenesulfonylamino]heptanoic acid] | 150 |  | 634 |  |  |  |  |  |  |  |  |  |  |  | 
CCCCCC(O)c1ccc(CN(CC#CCCCC(=O)O)S(C)(=O)=O)cc1 (centres unmarked) [7-[[4-(1-hydroxyhexyl)benzyl]methanesulfonylamino]hept-5-yne-oic acid] |  |  |  |  |  |  |  | 24 | 5680 |  |  |  | 620 |  | 
CCCCCC(O)c1ccc(CN(CCCCCCC(=O)O)S(=O)(=O)c2cccs2)cc1 (centres unmarked) [7-[[4-(1-hydroxyhexyl)benzyl]thiophenesulfonylamino]heptanoic acid] | 90 | > 10000 | 600 | 1490 |  |  |  |  |  |  |  |  |  |  | 
CC(C)(C)c1ccc(CN(CCCCCCC(=O)O)S(=O)(=O)c2ccccc2)cc1 [7-[[4-(1-t-butyl)benzyl]benzenesulfonylamino]heptanoic acid] |  |  |  |  |  | 373 | 99 | 965 | 1540 | 82 |  | 11 | 964 | 78 | 
CC(C)(C)c1ccc(CN(CCCCCCC(=O)O)S(C)(=O)=O)cc1 [7-[[4-(1-t-butyl)benzyl]methanesulfonylamino]heptanoic acid] |  |  |  |  |  |  | 41 | 156 |  | 60 | IP = 2561 | 2 | 2310 | 89 | 
CC(C)(C)c1ccc(CN(CCCCCCC(=O)O)S(=O)(=O)c2cccnc2)cc1 [7-[[4-(1-t-butyl)benzyl]pyridinesulfonylamino]heptanoic acid] |  |  |  |  |  | 1380 | 71 | 126 | 829 | 73 |  | 1 | 591 | 83 | 
CC(C)(C)c1ccc(CN(CCCCCCC(=O)O)S(=O)(=O)c2cccs2)cc1 [7-[[4-(1-t-butyl)benzyl]thiophenelsulfonylamino]heptanoic acid] |  |  |  |  |  | 706 | 94 | 1970 | 493 | 76 |  | 9 | 1130 | 71 | 
CCCCCC(O)c1ccc(CN(CCCCCCC(=O)O)S(C)(=O)=O)cc1 (centres unmarked) [Compound 12, 7-[[4-(1-Hydroxyhexyl)benzyl]methanesulfonylamino]heptanoic acid] |  | 16 | 406 | 1690 |  |  |  |  |  |  |  |  |  |  | selective at the EP2 and EP4 receptors
